Test results taken from PMC7504215, “Copper(II) Complexes with Mixed Heterocycle Ligands as Promising Antibacterial and Antitumor Species” (Molecules, 2020).
Where two headings read alike, the source gives them in different places.

Tests used:
[1] = system: plasmid pRSII325; test: Nuclease activity assay, gel electrophoresis; type: biochemical; conditions: for Nuclease activity in the presence of H2O2: 3 µM compound + 1 mM H2O2, 1 h at 37 °C; for Nuclease activity in the presence of ascorbate: 3 µM compound + 1 mM ascorbate; for Nuclease activity in the presence of ascorbate / Nuclease activity, compound alone: 1 h at 37 °C; for Nuclease activity, compound alone: 3 µM compound, no activating agent
Procedure: The nuclease activity of the compounds was determined using plasmid pRS325II DNA, which was a gift from Steven Haase (Addgene plasmid #35467, 6835 base pairs). The plasmid was amplified in Escherichia coli by transforming One Shot® TOP10 chemically competent E. coli from Invitrogen, Thermo Fisher Scientific (Vilnius, Lithuania). Plasmid was isolated from positive colonies using a PureLink™ HiPure Plasmid Miniprep Kit from Invitrogen, Thermo Fisher Scientific (Vilnius, Lithuania). Plasmid (200 ng/sample) was exposed to 3 µM compounds in the presence of 1 mM hydrogen peroxide (to exploit the Cu(II/III) redox couple) or 1 mM ascorbic acid (to exploit the Cu(I/II) redox couple). The DNA cleavage experiments for the complexes were done in a 9/1 (v/v) ratio of 50 mM Tris-HCl buffer, pH 8, and DMSO. The samples were incubated for 1 h at 37 °C before a bromophenol blue/xylene cyanol-based loading dye (Roth, Germany) was added to the samples. Partial cleavage of the plasmid to linear form was done with the restriction enzyme EcoRI (Promega, USA) by incubation for 5 min at 37 °C. The samples were loaded on a 1% (w/v) agarose gel containing 1 μg/mL EtBr in 1 × TAE (Tris–acetic acid–EDTA) buffer. Electrophoresis was performed at 100 V for 45 min in 1 × TAE buffer. The images of the fluorescent ethidium bromide-stained gels were captured using a gel documentation system (Doc-Print II, Vilber Lourmat, France). The cleavage experiments were done six times, with similar results. One representative gel is shown.

[2] = system: normal BJ cell (human fibroblast); test: MTT cell viability assay; type: cell-based
Procedure: The cytotoxicity of ligand and copper(II) complexes was tested on normal BJ cell as well as on B16 (melanoma) tumor cells, which were grown for 48 h in culture medium containing the tested complexes in 0–25 μg/mL concentration range.
Human fibroblast cells (BJ-ATCC CRL-2522, Manassas, VA, USA) were grown in minimal essential medium (MEM) supplemented with 2 mM L-Glutamine, 10% fetal calf serum (FCS), 100 units/mL of penicillin and 100 µg/mL of streptomycin at 37 °C in a humidified incubator under an atmosphere containing 5% CO2. Mouse melanoma cells (B16-ATCC CRL-6475, Manassas, VA, USA) were grown in DMEM (Dulbecco’s Modified Eagle Medium) supplemented with similar reagents as MEM. All cell cultivation media and reagents were purchased from Biochrom AG (Berlin, Germany) and Sigma-Aldrich (Darmstadt, Germany).
Cell viability was evaluated using 3-(4,5-dimethylthiazol-2-yl)-2,5-diphenyltetrazolium bromide (MTT) assay, as described previously. First, the cells were seeded in 96-well plates (20,000 cells/well) and cultured for 24 h in medium. After overnight incubation, the medium was changed and the investigated sample in concentration varying from […] was added for 24 h. The negative control was represented by cells cultivated in medium without the investigated compounds. Following incubation, the medium was changed and the MTT solution was added to each well to a final concentration of 1 mg/mL and incubated for additional 4 h, at 37 °C. Finally, the medium was collected and DMSO was used to dissolve the insoluble formazan product. The absorbance of the samples was recorded at 570 nm using a plate reader Mithras 940 (Berthold). The data were corrected for the background and the percentage of viable cells was obtained using the equation:Cell viability = [(A570 of treated cells)/(A570 of untreated cells)] × 100%
The half-maximal inhibitory concentration (IC50) was determined by fitting the data with a logistical sigmoidal equation using the software Origin 8.1 from Microcal Inc. (Los Angeles, CA, USA).

[3] = system: Saccharomyces cerevisiae (wild-type, WT) laboratory strain BY4741; test: Yeast cell proliferation (toxicity); type: cell-based; conditions: for Effect on cell proliferation: 0.1–0.2 mM final concentration in liquid YPD, compared to cells grown without compounds; for IC50: S. cerevisiae BY4741 (WT), liquid YPD
Procedure: The Saccharomyces cerevisiae laboratory strain BY4741 (MATa; his3Δ1; leu2Δ0; met15Δ0; ura3Δ0), considered wild type (WT), and the isogenic strains sod1Δ and sod2Δ lacking the genes SOD1 (encoding Cu/Zn-superoxide dismutase) and SOD2 (encoding Mn-superoxide dismutase) were purchased from EUROSCARF (Frankfurt, Germany). Cells were maintained and manipulated and grown in YPD medium (1% w/v yeast extract, 2% w/v peptone, 2% w/v glucose; 2% w/v agar was added for solid media). Complexes were added to autoclaved media from DMSO sterile stocks (10 mM). To determine the effect of compounds on yeast growth, a fresh overnight pre-culture was 10^3-fold diluted in YPD and incubated (200 rpm, 30 °C) until the culture reached a density of 5 × 10^5 cells/mL. At this point, the compounds were added to the desired concentrations, and cell proliferation was monitored at 660 nm in a 96-well multi-scanner autoreader plate reader equipped with a thermostat and shaker (Varioskan Thermo Fischer Scientific, Vantaa, Finland). The uptake of compounds by yeast cells was determined indirectly by measuring the increase of the total cellular copper content normalized to the total cellular protein determined by Bradford assay. All determinations were done on three biological replicates. The IC50 was calculated by nonlinear regression analysis using the Graphpad Prism software.

[4] = system: B16 cells; test: Phalloidin staining and cell imaging (cytoskeleton, nucleus); type: cell-based, Mouse; conditions: 24 h, 6 μg/mL
Procedure: Cytoskeleton actin filaments of BJ and B16 cells were stained with phalloidin-FITC (Sigma-Aldrich, USA) according to the manufacturer’s protocol. Briefly, cells were washed with PBS (5 min, 3 times), fixed for 5 min with 3% paraformaldehyde, washed three times with PBS, permeabilized with 0.1% Triton X-100 in PBS for 15 min, washed three times with PBS, stained with 20 μg mL^−1 phalloidin-FITC at room temperature for 1 h and washed again three times with PBS. Cell nucleus was stained with 8 μM of Hoechst 33342 solution for 10 min, washed three times with PBS and finally, mounted and sealed on glass slides with FluorSave™ Reagent (Merck Millipore, Germany). The fluorescence images were acquired using an Andor DSD2 Confocal Unit (Andor, Ireland), mounted on an epifluorescence microscope, Olympus BX-51 (Olympus, Germany), equipped with a 40x and 100x objective and an appropriate DAPI/Hoechst filter cube (excitation filter 390/40 m, dichroic mirror 405 nm and emission filter 452/45 nm) and GFP/FITC filter cube (excitation filter 466/40 nm, dichroic mirror 488 nm and emission filter 525/54 nm).

**Q.** What does the source list for `Cc1cc(-c2ccccc2)nc2ncnn12.[Cu+2].[O-][Cl+3]([O-])([O-])[O-].[O-][Cl+3]([O-])([O-])[O-].c1ccc(-c2ccccn2)nc1.c1ccc(-c2ccccn2)nc1` [(1), [Cu(bpy)2(pmtp)](ClO4)2]?
**A.** Nuclease activity in the presence of H2O2 [1]: led to DNA degradation; Nuclease activity in the presence of ascorbate [1]: led to DNA degradation; Nuclease activity, compound alone [1]: caused plasmid relaxation to the NC form; Viability of BJ cells ([2]; 48 h, highest tested concentration (0–25 μg/mL range)): 70%; Effect on cell proliferation [3]: did not significantly affect cell proliferation; IC50 [3]: 480 ± 160 µM; Cell morphology (cytoskeleton and nucleus) [4]: does not alter the morphology of the cells

**Q.** For `Cc1cc(-c2ccccc2)nc2ncnn12.[Cu+2].[O-][Cl+3]([O-])([O-])[O-].[O-][Cl+3]([O-])([O-])[O-].c1cnc2c(c1)ccc1cccnc12.c1cnc2c(c1)ccc1cccnc12` [(2), [Cu(phen)2(pmtp)](ClO4)2], which “Nuclease activity in the presence of H2O2” value [1] is on record?
**A.** led to DNA degradation

**Q.** What about the “Nuclease activity in the presence of ascorbate” value [1] of the same compound?
**A.** led to DNA degradation

**Q.** And the “Nuclease activity, compound alone” value [1]?
**A.** caused plasmid relaxation to the NC form

**Q.** And the “IC50 BJ Cells 24 h” value ([2]; BJ cells, 24 h, MTT)?
**A.** 5.98 µg/mL

**Q.** What about the IC50 ([2]; BJ cells, 24 h, MTT, read-out: IC50 BJ Cells 24 h) of the same compound?
**A.** 7 µM

**Q.** What about the “IC50 BJ Cells 48 h” value ([2]; BJ cells, 48 h, MTT) of the same compound?
**A.** 3.30 µg/mL

**Q.** And the IC50 ([2]; BJ cells, 48 h, MTT, read-out: IC50 BJ Cells 48 h)?
**A.** 4 µM

**Q.** And the “Effect on cell proliferation” value [3]?
**A.** did not significantly affect cell proliferation

**Q.** And the IC50 [3]?
**A.** 580 ± 210 µM

**Q.** What about the “Cell morphology (cytoskeleton and nucleus)” value [4] of the same compound?
**A.** affects the cell morphology
